Read-outs that look alike come from different tables or passages of the source.
Assays:
CYP1A2 = target: T1, CYP1A2 (Homo sapiens, UniProt P05177); details: microsomes
T1 sequence (P05177 1-516): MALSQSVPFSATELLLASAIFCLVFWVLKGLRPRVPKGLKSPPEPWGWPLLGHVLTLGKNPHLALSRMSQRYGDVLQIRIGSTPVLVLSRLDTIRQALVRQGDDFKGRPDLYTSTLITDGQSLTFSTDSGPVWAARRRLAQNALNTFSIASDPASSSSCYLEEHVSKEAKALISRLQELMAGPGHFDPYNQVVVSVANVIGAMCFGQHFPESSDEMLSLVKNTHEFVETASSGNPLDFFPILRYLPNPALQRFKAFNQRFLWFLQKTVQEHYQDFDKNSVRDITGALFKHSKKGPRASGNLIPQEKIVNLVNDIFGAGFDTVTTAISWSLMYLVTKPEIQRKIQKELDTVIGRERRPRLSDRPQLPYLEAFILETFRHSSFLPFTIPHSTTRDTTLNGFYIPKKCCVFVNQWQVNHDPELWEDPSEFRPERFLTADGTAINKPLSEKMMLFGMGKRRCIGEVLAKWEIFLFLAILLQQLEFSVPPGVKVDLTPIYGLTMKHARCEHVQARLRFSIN
Procedure: (§1) The incubation conditions employed for each CYP450 isoform were performed, as previously described.
(§2) Buffer solution (0.1 mol/L aqueous phosphate buffer, pH 7.4, 69 µL), NADPH-regenerating solutions (10 µL solution A: 26 mmol/L NADP+, 66 mmol/L glucose-6-phosphate, and 66 mmol/L MgCl2; 2 µL solution B: 40 U/mL glucose-6-phosphate dehydrogenase in 5 mmol/L sodium citrate), and deionized water (69 µL) were added, in a total volume of 150 μL. The tubes were vortex-mixed and preincubated with continuous gentle shaking for 5 min at 37 °C in a shaking water bath. Reactions were initiated by the addition of 50 µL of HLM solution in the tubes which were gently mixed by hand and incubated with continuous gentle shaking at 37 °C. Aliquots of 200 µL ice-cold solvent (Table 1) containing IS (1 µg/mL) were added. […] The supernatants were transferred to glass autosampler vials and submitted to LC-MS/MS analysis (5 µL injection volume) to monitor the substrate metabolite formation.

CYP2C19 [1] = target: T2, CYP2C19 (Homo sapiens, UniProt P33261); details: microsomes
Procedure: as §1, §2

CYP2C8 [2] = target: T3, CYP2C8 (Homo sapiens, UniProt P10632); details: microsomes
T3 sequence (P10632 1-490): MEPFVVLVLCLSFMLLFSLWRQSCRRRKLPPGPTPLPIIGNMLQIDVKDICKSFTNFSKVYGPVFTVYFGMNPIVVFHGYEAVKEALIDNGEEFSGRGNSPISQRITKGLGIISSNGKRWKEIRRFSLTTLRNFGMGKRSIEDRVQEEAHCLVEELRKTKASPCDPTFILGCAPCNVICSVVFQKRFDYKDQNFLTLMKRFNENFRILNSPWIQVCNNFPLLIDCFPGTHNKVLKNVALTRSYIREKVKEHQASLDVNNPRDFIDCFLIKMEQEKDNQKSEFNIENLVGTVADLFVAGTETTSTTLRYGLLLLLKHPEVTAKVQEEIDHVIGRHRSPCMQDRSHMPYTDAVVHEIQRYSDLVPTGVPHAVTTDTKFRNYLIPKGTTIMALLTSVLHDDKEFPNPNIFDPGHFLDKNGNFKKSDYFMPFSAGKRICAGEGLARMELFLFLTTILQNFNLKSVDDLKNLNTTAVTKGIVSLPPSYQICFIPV
Procedure: as §1, §2

CYP2C9 [3] = target: T4, CYP2C9 (Homo sapiens, UniProt P11712); details: microsomes
Procedure: as §1, §2

CYP2D6 [4] = target: T5, CYP2D6 (Homo sapiens, UniProt P10635); details: microsomes
Procedure: as §1, §2

CYP2A6 = target: T6, CYP2A6 (Homo sapiens, UniProt P11509); experiment: in vitro CYP450 metabolism inhibition assay in human liver microsomes, CYP2A6 (coumarin); details: microsomes
T6 sequence (P11509 1-494): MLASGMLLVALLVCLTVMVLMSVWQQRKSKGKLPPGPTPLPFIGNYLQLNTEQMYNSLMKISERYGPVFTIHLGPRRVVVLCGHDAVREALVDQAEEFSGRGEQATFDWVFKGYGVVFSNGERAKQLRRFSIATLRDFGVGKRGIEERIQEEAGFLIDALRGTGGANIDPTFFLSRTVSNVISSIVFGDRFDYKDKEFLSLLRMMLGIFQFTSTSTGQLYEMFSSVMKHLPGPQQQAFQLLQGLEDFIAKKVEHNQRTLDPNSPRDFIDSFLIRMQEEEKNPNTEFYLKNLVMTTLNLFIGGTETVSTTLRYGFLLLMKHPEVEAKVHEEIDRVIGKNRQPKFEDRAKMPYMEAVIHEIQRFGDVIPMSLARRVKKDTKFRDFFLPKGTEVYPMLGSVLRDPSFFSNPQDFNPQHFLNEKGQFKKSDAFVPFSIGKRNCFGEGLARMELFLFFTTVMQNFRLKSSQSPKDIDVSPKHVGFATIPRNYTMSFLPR
Procedure: as §1, §2

CYP2C8 [5] = target: T3, CYP2C8
Description: (§3) The Ki input values were estimated from the ratio IC50/2. Since the IC50 experiments were designed considering the substrate concentration equal to Km, the simplification of Ki as IC50/2 was considered for a competitive inhibition reaction.
(§4) The following Equation (4) was considered for the potential DDI evaluation:(4) AUCR=AUCwith inhibitor/AUCwithout inhibitor where AUCR is the area under the curve ratio, AUCwith inhibitor is AUC in the presence of the inhibitor, and AUCwithout inhibitor is AUC in the absence of the inhibitor.

CYP2C9 [6] = target: T4, CYP2C9
Description: as §3, §4

CYP2D6 [7] = target: T5, CYP2D6
Description: as §3, §4

CYP2C19 [8] = target: T2, CYP2C19; experiment: clinical DDI prediction, static (IVIVE) and dynamic (PBPK) models, CYP2C19
Description: as §3, §4

[9] = dogs, observed, ref Palo et al. [7], cited from earlier work
interdigital tinea pedis = details: ref [3]; cited from earlier work

T4 sequence (P11712 whole entry): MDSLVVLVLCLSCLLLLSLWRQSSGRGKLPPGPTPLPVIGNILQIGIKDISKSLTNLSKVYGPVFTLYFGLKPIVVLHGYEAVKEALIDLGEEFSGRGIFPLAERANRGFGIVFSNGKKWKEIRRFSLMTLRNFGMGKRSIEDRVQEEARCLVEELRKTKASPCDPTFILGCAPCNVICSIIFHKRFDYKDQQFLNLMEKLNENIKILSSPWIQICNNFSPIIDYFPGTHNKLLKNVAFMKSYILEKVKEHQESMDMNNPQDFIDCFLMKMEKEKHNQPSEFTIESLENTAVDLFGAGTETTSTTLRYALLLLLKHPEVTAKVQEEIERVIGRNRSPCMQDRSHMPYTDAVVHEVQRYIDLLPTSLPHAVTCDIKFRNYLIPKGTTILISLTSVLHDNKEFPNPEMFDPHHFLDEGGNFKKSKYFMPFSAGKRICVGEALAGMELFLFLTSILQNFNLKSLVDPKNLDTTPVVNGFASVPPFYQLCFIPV
T5 sequence (P10635 whole entry): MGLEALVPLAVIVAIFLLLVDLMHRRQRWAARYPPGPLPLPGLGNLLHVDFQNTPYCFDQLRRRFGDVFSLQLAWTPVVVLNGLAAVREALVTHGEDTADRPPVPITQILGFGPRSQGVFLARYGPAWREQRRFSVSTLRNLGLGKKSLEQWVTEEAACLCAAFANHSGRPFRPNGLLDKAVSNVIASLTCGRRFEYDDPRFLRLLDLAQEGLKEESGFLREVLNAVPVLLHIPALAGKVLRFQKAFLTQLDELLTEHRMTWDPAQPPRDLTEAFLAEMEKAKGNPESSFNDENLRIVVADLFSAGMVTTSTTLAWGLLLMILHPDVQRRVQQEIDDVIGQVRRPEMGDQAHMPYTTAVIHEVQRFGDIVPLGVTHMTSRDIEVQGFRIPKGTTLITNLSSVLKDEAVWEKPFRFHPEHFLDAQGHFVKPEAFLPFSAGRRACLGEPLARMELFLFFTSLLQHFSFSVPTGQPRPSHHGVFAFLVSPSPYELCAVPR
T2 sequence (P33261 whole entry): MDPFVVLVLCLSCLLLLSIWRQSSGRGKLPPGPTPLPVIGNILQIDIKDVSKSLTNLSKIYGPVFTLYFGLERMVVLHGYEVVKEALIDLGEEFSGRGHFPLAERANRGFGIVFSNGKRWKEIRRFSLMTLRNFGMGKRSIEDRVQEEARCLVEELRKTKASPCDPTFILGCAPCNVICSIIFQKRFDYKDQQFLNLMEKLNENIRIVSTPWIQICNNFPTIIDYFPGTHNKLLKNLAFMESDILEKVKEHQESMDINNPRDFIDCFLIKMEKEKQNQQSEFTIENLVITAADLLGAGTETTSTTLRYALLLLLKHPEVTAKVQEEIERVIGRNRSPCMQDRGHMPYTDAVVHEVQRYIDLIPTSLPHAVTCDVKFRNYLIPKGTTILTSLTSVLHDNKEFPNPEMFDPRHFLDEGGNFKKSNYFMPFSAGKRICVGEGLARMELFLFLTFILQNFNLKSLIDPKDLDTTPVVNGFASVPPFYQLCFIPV

FC(F)(F)c1ccc(COC(Cn2ccnc2)c2ccc(Cl)cc2Cl)cc1 (stereo not shown) [dapaconazole, Dapaconazole]
IC50 (CYP1A2): 3.68 µM
Ki (CYP1A2): 1840 nM
Ki (CYP2C19 [1]): 30 nM
in vitro reversible inhibition class from IC50 (CYP2C8 [2]): slightly inhibits
Ki (CYP2C9 [3]): 110 nM
Ki (CYP2D6 [4]): 430 nM
IC50 (CYP2A6): 20.7 µM
DDI potential from Ki and R1 values (CYP2C8 [5]): low potential
R1 (CYP2C8 [5]): 1.01
DDI potential from Ki and R1 values (CYP2C9 [6]): high potential
R1 (CYP2C9 [6]): 4.43
DDI potential from Ki and R1 values (CYP2D6 [7]): high potential
R1 (CYP2D6 [7]): 1.86
DDI potential from Ki and R1 values (CYP2C19 [8]): high potential
R1 (CYP2C19 [8]; reversible inhibition, substrate S-mephenytoin): 15.14
AUC0-t ([9]; intravenous 1 mg/kg): 255.0 ng·h/mL
CL ([9]; intravenous 1 mg/kg): 700.0 mL/min
Cmax ([9]; intravenous 1 mg/kg): 373.2 ng/mL
t1/2 Terminal ([9]; intravenous 1 mg/kg): 2.1 h
AUC0-t ([9]; intravenous 2 mg/kg): 779.9 ng·h/mL
CL ([9]; intravenous 2 mg/kg): 591.7 mL/min
Cmax ([9]; intravenous 2 mg/kg): 1444.7 ng/mL
t1/2 Terminal ([9]; intravenous 2 mg/kg): 2.5 h
AUC0-t ([9]; intravenous 20 mg/kg): 4780.1 ng·h/mL
CL ([9]; intravenous 20 mg/kg): 700.0 mL/min
Cmax ([9]; intravenous 20 mg/kg): 4708.3 ng/mL
t1/2 Terminal ([9]; intravenous 20 mg/kg): 2.3 h
efficacy compared with ketoconazole (interdigital tinea pedis): noninferior efficacy
